Results on three compounds are retold here after US7488720B2, “A1 adenosine receptor agonists” (CV Therapeutics, Inc., priority 2005, dated 2009).

This data set in a line: Blood brain penetration assay (in situ brain perfusion). The format is in vivo. To be noted: rat in situ brain perfusion, 5 μM, 1 min, left cerebrum. On the procedure:
Studies of transport of the compounds of Formula I were carried out in accordance with an in situ brain perfusion technique disclosed in “Methods in Molecular medicine, Vol. 89, pp209-218, by Quentin R. Smith and David D. Allen
Anesthesia: Cocktail of 90 mg/kg ketamine/9 mg/kg xylazine was given at a volume of […] as i.m. injection.
Surgery and perfusion: The left common carotid artery was cannulated, the chest opened and the heart severed. The brain was perfused at 10 ml/min for a predetermined duration of time, followed by post-perfusion with perfusion solution for 30 seconds.
A stock solution of the test drug was prepared as a solution of […] in DMSO.
C. Treatment • 1. Three rats per group were infused with the study compounds or a control compound via the left common carotid artery. • 2. Brain and perfusion solution samples were obtained at the end of the perfusions. D. Sample Collection • 1. Brains were collected and the left hemispheres or regions thereof were segmented and flash frozen in liquid nitrogen. • 2. A sample of the perfusion solution was also taken after each perfusion into an Eppendorf tube, and stored at −80° C. in separate container from the brain samples. • 3. When necessary, prior to the perfusion, blood samples were collected in tubes prepared with study anticoagulant. Whole blood was centrifuged at 8000 rpm for 3 minutes. Plasma was collected into Eppendorf tubes and frozen at −80° C. in separate container from the brain samples. E. Analytical and Data Analysis
Concentrations of study and marker compounds in all samples was measured using LC/MS-MS (and/or LC-UV technique when applicable) and permeability kinetics were determined.
Take `CN(C)CCCN1c2ccccc2Sc2ccc(Cl)cc21` [Chlorpromazine, reference compound]: the “rate of penetration of the blood brain barrier” value was 61.5 pmol/g/s. Consider `O=C(NCc1nc(NC2CCCC2)c2ncn([C@@H]3O[C@H](CO)[C@@H](O)[C@H]3O)c2n1)c1ccc(S(=O)(=O)O)cc1` [Example 6A, 4-[N-({9-[(4S,2R,3R,5R)-3,4-dihydroxy-5-(hydroxymethyl)oxolan-2-yl]-6-(cyclopentylamino)purin-2-yl}methyl)carbamoyl]benzenesulfonic acid], for which the “rate of penetration of the blood brain barrier” value is 0.015 pmol/g/s. As for `O=C(CS(=O)(=O)O)NCc1nc(NC2CCCC2)c2ncn([C@@H]3O[C@H](CO)[C@@H](O)[C@H]3O)c2n1` [Example 6B, N-({9-[(4S,2R,3R,5R)-3,4-dihydroxy-5-(hydroxymethyl)oxolan-2-yl]-6-(cyclopentylamino)purin-2-yl}methyl)carbamoylmethylsulfonic acid], the figure is 0.10 pmol/g/s.
